Columns and labels:
Assay in all cases: relative viability (nuclei count vs DMSO), 5 days (fraction); higher = more cells survive
AZD8055 + Pemetrexed = compound: COc1ccc(-c2ccc3c(N4CCOC[C@@H]4C)nc(N4CCOC[C@@H]4C)nc3n2)cc1CO [AZD8055] + Nc1nc2[nH]cc(CCc3ccc(C(=O)N[C@@H](CCC(=O)O)C(=O)O)cc3)c2c(=O)[nH]1 [Pemetrexed] (partner 0.2 µM)
Method in brief: (§1)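 Lung cancer cell lines in 1536-well plates were dosed by pin tool the day after seeding, either with one drug alone or with a fixed anchor-drug dose plus five library-drug doses (not always all listed) in √10 steps. After 5 days, cells were fixed and their nuclei stained in one step (final 0.05% Triton X-100, 1% formaldehyde, 1 ug/ml Hoechst), then counted on 4× images. Relative viability is the nuclei count in treated wells divided by that in vehicle wells. Values are medians of duplicate plates.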

AZD8055 + Dasatinib = compound: COc1ccc(-c2ccc3c(N4CCOC[C@@H]4C)nc(N4CCOC[C@@H]4C)nc3n2)cc1CO [AZD8055] + Cc1nc(Nc2ncc(C(=O)Nc3c(C)cccc3Cl)s2)cc(N2CCN(CCO)CC2)n1 [Dasatinib] (partner 0.075 µM)
Method in brief: as §1

AZD8055 + Lapatinib = compound: COc1ccc(-c2ccc3c(N4CCOC[C@@H]4C)nc(N4CCOC[C@@H]4C)nc3n2)cc1CO [AZD8055] + CS(=O)(=O)CCNCc1ccc(-c2ccc3ncnc(Nc4ccc(OCc5cccc(F)c5)c(Cl)c4)c3c2)o1 [Lapatinib] (partner 2 µM)
Method in brief: as §1

AZD8055 + Crizotinib = compound: COc1ccc(-c2ccc3c(N4CCOC[C@@H]4C)nc(N4CCOC[C@@H]4C)nc3n2)cc1CO [AZD8055] + C[C@@H](Oc1cc(-c2cnn(C3CCNCC3)c2)cnc1N)c1c(Cl)ccc(F)c1Cl [Crizotinib] (partner 1 µM)
Method in brief: as §1

| Cell Line | relative viability (AZD8055 + Pemetrexed; first compound 0.01 µM) | relative viability (AZD8055 + Pemetrexed; first compound 0.03162 µM) | relative viability (AZD8055 + Pemetrexed; first compound 0.1 µM) | relative viability (AZD8055 + Pemetrexed; first compound 0.3162 µM) | relative viability (AZD8055 + Pemetrexed; first compound 1 µM) | relative viability (AZD8055 + Dasatinib; first compound 0.01 µM) | relative viability (AZD8055 + Dasatinib; first compound 0.03162 µM) | relative viability (AZD8055 + Dasatinib; first compound 0.1 µM) | relative viability (AZD8055 + Dasatinib; first compound 0.3162 µM) | relative viability (AZD8055 + Dasatinib; first compound 1 µM) | relative viability (AZD8055 + Lapatinib; first compound 0.01 µM) | relative viability (AZD8055 + Lapatinib; first compound 0.03162 µM) | relative viability (AZD8055 + Lapatinib; first compound 0.1 µM) | relative viability (AZD8055 + Lapatinib; first compound 0.3162 µM) | relative viability (AZD8055 + Lapatinib; first compound 1 µM) | relative viability (AZD8055 + Crizotinib; first compound 0.01 µM) | relative viability (AZD8055 + Crizotinib; first compound 0.03162 µM) | relative viability (AZD8055 + Crizotinib; first compound 0.1 µM) | relative viability (AZD8055 + Crizotinib; first compound 0.3162 µM) | relative viability (AZD8055 + Crizotinib; first compound 1 µM) |
| --- | --- | --- | --- | --- | --- | --- | --- | --- | --- | --- | --- | --- | --- | --- | --- | --- | --- | --- | --- | --- |
| LCLC-97TM1 | 0.18 | 0.158 | 0.168 | 0.168 | 0.132 | 0.873 | 0.748 | 0.761 | 0.393 | 0.445 | 0.758 | 0.815 | 0.639 | 0.157 | 0.181 | 0.365 | 0.352 | 0.154 | 0.158 | 0.193 |
| HARA | – | 0.214 | 0.281 | 0.259 | 0.192 | 0.282 | 0.294 | 0.221 | 0.155 | 0.221 | 0.75 | 0.614 | 0.408 | 0.326 | 0.224 | 1.09 | 1.14 | 0.855 | 0.573 | 0.33 |
| HCC-78 | 0.967 | 0.865 | 0.855 | 0.88 | 0.896 | 0.328 | 0.306 | 0.222 | 0.233 | 0.247 | 0.934 | 0.547 | 0.406 | 0.225 | 0.217 | 0.303 | 0.307 | 0.233 | 0.213 | 0.19 |
| NCI-H1666 | 0.917 | 0.878 | 0.895 | 0.751 | 0.716 | 0.928 | 0.853 | 0.739 | 0.698 | 0.579 | 0.587 | 0.488 | 0.488 | 0.355 | 0.362 | 0.936 | 1.01 | 0.812 | 0.648 | 0.465 |
| NCI-H2347 | 0.456 | 0.449 | 0.442 | 0.414 | 0.435 | 0.307 | 0.29 | 0.252 | 0.235 | 0.213 | 0.89 | 0.825 | 0.823 | 0.498 | 0.408 | 0.601 | 0.509 | 0.402 | 0.332 | 0.531 |
| NCI-H727 | – | – | – | – | – | 0.444 | 0.464 | 0.41 | 0.28 | 0.312 | 0.807 | 0.818 | 0.685 | 0.378 | 0.308 | 0.994 | 0.896 | 0.536 | 0.292 | 0.279 |
| NCI-H441 | 0.273 | 0.247 | 0.232 | 0.234 | 0.205 | 0.538 | 0.608 | 0.474 | 0.281 | 0.245 | – | – | – | – | – | 0.767 | 0.667 | 0.565 | 0.359 | 0.232 |
| EBC-1 | – | – | – | – | – | – | – | – | – | – | 0.214 | 0.213 | 0.219 | 0.231 | 0.199 | 0.155 | 0.204 | 0.197 | 0.221 | 0.219 |
| HCC-44 | 0.65 | 0.702 | 0.665 | 0.655 | 0.673 | – | – | – | – | – | 1.09 | 0.997 | 0.769 | 0.565 | 0.443 | 0.879 | 0.825 | 0.662 | 0.364 | 0.315 |
